In ChEMBL document CHEMBL2010784 (ACS Med Chem Lett, 2011) one finds EC50 data, which are given here for four compounds.

The test system of the test is Vaccinia virus. Briefly: Antiviral activity against Vaccinia virus Lederle infected in HEL cells assessed as inhibition of viral-induced cytopathogenicity. It counts as functional, organism-based. The note with it: Orthopoxvirus vaccinia. For orientation: Cytopathic effects are the visible damage that an infection or toxin causes in cultured cells.
On to `C#C[C@]1(CO)S[C@@H](n2ccc(N)nc2=O)C[C@@H]1O`, for which the EC50 (usually the concentration at which the effect is half-maximal) was 6.5 µM.

Turning to `C#C[C@]1(CO)S[C@@H](n2cnc3c(N)ncnc32)C[C@@H]1O`, the EC50 was 52 µM.

For `C#C[C@]1(CO)S[C@@H](n2cnc3c(=O)[nH]c(N)nc32)C[C@@H]1O`, the half-maximal effective concentration (EC50) was 27 µM.

Turning to `Nc1nc2c(ncn2COC(CO)CO)c(=O)[nH]1` [GANCICLOVIR], the EC50 worked out at 100 µM.
